Calls of active or inactive are those of the source. The calls are words filed in the database; no cut-off is given here.
Columns and labels:
[1] = Acute toxicity in male C57BL/6J mouse assessed as structural changes in lung at 2 g/Kg, IG measured after 72 hrs by H and E staining based analysis; assay type: tissue-based; details: in vivo, po, 2000 mg/kg
Mus musculus = experiment: Anti-necroptotic activity in TNFalpha/Z-VAD-FMK induced SIRS male C57BL/6J mouse model assessed as survival rate at 2.5 mg/kg, po pre-administered with compound via gavage for 2 hrs followed by […] of Z-VAD-FMK stimulation for 15 mins with subsequent TNF-alpha stimulation for 1 hrs and re-current […] of Z-VAD-FMK stimulation and measured after 8 hrs post SIRS induction relative to control; assay type: functional; details: time 10 hrs
HT-29 [2] = experiment: Downregulation of RIPK3 protein level in human HT-29 cells at 6 uM preincubated with NH4Cl for 2 hrs followed by compound addition and measured after 9 hrs by Western blot analysis; assay type: functional, cell-based
HT-29 [3] = experiment: Upregulation of HSP70 expression in human HT-29 cells at 1.5 uM incubated for 9 hrs by Western blot analysis; assay type: functional, cell-based
[4] = Acute toxicity in male C57BL/6J mouse assessed as inflammatory cell infiltration in brain at 2 g/Kg, IG measured after 72 hrs by H and E staining based analysis; assay type: tissue-based; details: in vivo, po, 2000 mg/kg
[5] = Cmax in Sprague-Dawley rat at 2 mg/kg, iv measured after 24 hrs by LC-MS/MS analysis; assay type: ADME, organism-based; details: in vivo
HT-29 [6] = experiment: Downregulation of RIPK1 protein level in human HT-29 cell precipitate at 6 uM measured after 9 hrs by Western blot analysis; assay type: functional, cell-based
[7] = Acute toxicity in male C57BL/6J mouse assessed as hemorrhage in lung at 2 g/Kg, IG measured after 72 hrs by H and E staining based analysis; assay type: tissue-based; details: in vivo, po, 2000 mg/kg
[8] = molecular target: Heat shock protein HSP90 (Homo sapiens) (UniProt P07900+P08238); experiment: Inhibition of HSP90 in TSZ-induced human HT-29 cells assessed as reduction in EGFR protein level at 10 uM preincubated with compound followed by Z-VAD-FMK, SM164 and TNFalpha stimulation and measured after 6 hrs by Western blot analysis; assay type: cell-based
[9] = Cmax in Sprague-Dawley rat at 10 mg/kg, IG measured after 24 hrs by LC-MS/MS analysis; assay type: ADME, organism-based; details: in vivo, po
HeLa [10] = experiment: Inhibition of MLKL protein expression in RIPK3-deficient human HeLa cells at 6 uM preincubated with MG132 for 2 hrs followed by compound addition and measured after 9 hrs by Western blot analysis; assay type: functional, cell-based
HT-29 [11] = experiment: Downregulation of RIPK3 protein level in human HT-29 cells at 6 uM preincubated with MLN4924 for 2 hrs followed by compound addition and measured after 9 hrs by Western blot analysis; assay type: functional, cell-based
[12] = Bioavailability in Sprague-Dawley rat at 10 mg/kg, IG measured after 24 hrs by LC-MS/MS analysis; assay type: ADME, organism-based; details: in vivo, po
HeLa [13] = experiment: Inhibition of MLKL protein expression in RIPK3-deficient human HeLa cells at 6 uM preincubated with NH4Cl for 2 hrs followed by compound addition and measured after 9 hrs by Western blot analysis; assay type: functional, cell-based
[14] = Acute toxicity in male C57BL/6J mouse assessed as structural changes in intestine at 2 g/Kg, IG measured after 72 hrs by H and E staining based analysis; assay type: tissue-based; details: in vivo, po, 2000 mg/kg
[15] = Acute toxicity in male C57BL/6J mouse assessed as structural changes in brain at 2 g/Kg, IG measured after 72 hrs by H and E staining based analysis; assay type: tissue-based; details: in vivo, po, 2000 mg/kg
[16] = molecular target: T1, Mixed lineage kinase domain-like protein (Homo sapiens) (UniProt Q8NB16); experiment: Inhibition of MLKL phosphorylation at S358 residue in TSZ-induced human HT-29 cells at 10 uM preincubated with compound followed by Z-VAD-FMK, SM164 and TNFalpha stimulation and measured after 6 hrs by Western blot analysis; assay type: cell-based
T1 sequence (whole entry): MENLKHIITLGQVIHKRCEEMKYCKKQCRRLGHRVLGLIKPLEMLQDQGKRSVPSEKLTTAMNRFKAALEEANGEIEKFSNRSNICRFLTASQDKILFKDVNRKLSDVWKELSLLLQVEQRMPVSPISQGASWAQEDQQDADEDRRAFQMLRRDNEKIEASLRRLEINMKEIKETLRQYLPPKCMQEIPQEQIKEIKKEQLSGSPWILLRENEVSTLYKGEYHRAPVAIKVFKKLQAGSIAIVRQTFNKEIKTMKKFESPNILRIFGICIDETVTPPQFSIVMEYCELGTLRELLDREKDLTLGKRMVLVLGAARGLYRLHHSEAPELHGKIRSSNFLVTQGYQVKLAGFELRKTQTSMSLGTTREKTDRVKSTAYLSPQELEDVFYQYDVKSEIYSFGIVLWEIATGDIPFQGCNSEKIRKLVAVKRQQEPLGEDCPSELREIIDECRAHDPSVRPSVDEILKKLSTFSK

[17] = Acute toxicity in male C57BL/6J mouse assessed as hemorrhage in heart at 2 g/Kg, IG measured after 72 hrs by H and E staining based analysis; assay type: tissue-based; details: in vivo, po, 2000 mg/kg
HT-29 [18] = experiment: Anti-apoptotic activity in TS-induced human HT-29 cells assessed as increase in cell viability at 1.25 to 20 uM preincubated with compound followed by TNF-alpha and SM164 addition and measured after 36 hrs by CellTiter-Lumi luminescent cell viability assay; assay type: functional, cell-based; details: dose 1.25-20 µM
[19] = Acute toxicity in male C57BL/6J mouse assessed as effect on ALP level at 2 g/Kg, IG measured after 72 hrs; details: in vivo, po, 2000 mg/kg
HeLa [20] = experiment: Inhibition of MLKL protein expression in RIPK3-deficient human HeLa cells at 0.75 to 6 uM incubated for 9 hrs by Western blot analysis; assay type: functional, cell-based; details: dose 0.75-6 µM
[21] = Tmax in Sprague-Dawley rat at 2 mg/kg, iv measured after 24 hrs by LC-MS/MS analysis; assay type: ADME, organism-based; details: in vivo
HT-29 [22] = experiment: Downregulation of MLKL protein level in human HT-29 cells incubated for 9 hrs by Western blot analysis; assay type: functional, cell-based; details: dose 0.75-6 µM
HT-29 [23] = experiment: Downregulation of MLKL protein level in human HT-29 cells at 6 uM preincubated with MG132 for 2 hrs followed by compound addition and measured after 9 hrs by Western blot analysis; assay type: functional, cell-based
HeLa [24] = experiment: Inhibition of RIPK1 protein expression in RIPK3-deficient human HeLa cells at 0.75 to 6 uM incubated for 9 hrs by Western blot analysis; assay type: functional, cell-based; details: dose 0.75-6 µM
[25] = molecular target: Receptor-interacting serine/threonine-protein kinase 3 (Homo sapiens) (UniProt Q9Y572); experiment: Inhibition of RIPK3 phosphorylation in TSZ-induced human HT-29 cells at 10 uM preincubated with compound followed by Z-VAD-FMK, SM164 and TNFalpha stimulation and measured within 6 hrs by Western blot analysis relative to control; assay type: cell-based
HT-29 [26] = experiment: Downregulation of RIPK1 protein level in human HT-29 cells at 6 uM preincubated with MLN4924 for 2 hrs followed by compound addition and measured after 9 hrs by Western blot analysis; assay type: functional, cell-based
[27] = Acute toxicity in male C57BL/6J mouse assessed as hemorrhage in stomach at 2 g/Kg, IG measured after 72 hrs by H and E staining based analysis; assay type: tissue-based; details: in vivo, po, 2000 mg/kg

Sequence of Receptor-interacting serine/threonine-protein kinase 3 (Homo sapiens) (Q9Y572 whole entry, looked up): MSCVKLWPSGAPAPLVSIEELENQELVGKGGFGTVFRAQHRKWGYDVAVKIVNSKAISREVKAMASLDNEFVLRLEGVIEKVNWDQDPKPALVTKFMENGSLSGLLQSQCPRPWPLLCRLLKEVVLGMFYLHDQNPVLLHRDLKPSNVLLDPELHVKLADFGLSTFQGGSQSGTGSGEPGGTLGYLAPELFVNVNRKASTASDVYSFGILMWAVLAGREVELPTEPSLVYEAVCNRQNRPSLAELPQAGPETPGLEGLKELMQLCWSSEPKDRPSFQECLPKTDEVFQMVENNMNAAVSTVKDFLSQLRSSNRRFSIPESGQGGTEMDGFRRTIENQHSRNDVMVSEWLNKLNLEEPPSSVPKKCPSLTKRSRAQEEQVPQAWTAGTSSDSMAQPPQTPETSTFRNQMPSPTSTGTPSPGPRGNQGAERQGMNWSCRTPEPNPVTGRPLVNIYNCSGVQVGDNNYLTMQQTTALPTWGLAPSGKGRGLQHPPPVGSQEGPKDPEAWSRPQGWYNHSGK

SMILES: Cn1ccc(-c2ccc(NC(=O)[C@]34CCC(C)(C)C[C@H]3[C@H]3C(=O)C=C5[C@@]6(C)C=C(C#N)C(=O)C(C)(C)[C@@H]6CC[C@@]5(C)[C@]3(C)CC4)cc2)n1
- Activity [1]: Non-toxic
- survival at 2.5 mg/kg (Mus musculus): 35%
- Activity (HT-29 [2]): Active
- Activity (HT-29 [3]): Active
- Activity [4]: Non-toxic
- Cmax [5]: 1040 ng/mL
- Activity (HT-29 [6]): inactive
- Activity [7]: Non-toxic
- inhibition [8]: Active
- Cmax [9]: 65.1 ng/mL
- inhibition (HeLa [10]): Active
- Activity (HT-29 [11]): Active
- bioavailability [12]: 4.66%
- inhibition (HeLa [13]): Active
- Activity [14]: Non-toxic
- Activity [15]: Non-toxic
- inhibition [16]: Active
- Activity [17]: Non-toxic
- Activity (HT-29 [18]): inactive
- Activity [19]: Non-toxic
- inhibition (HeLa [20]): Active
- Tmax [21]: 4.98 min
- Activity (HT-29 [22]): Dose-dependent-effect
- Activity (HT-29 [23]): Active
- inhibition (HeLa [24]): Active
- inhibition [25]: 100%
- Activity (HT-29 [26]): Active
- Activity [27]: Non-toxic

Reference: ChEMBL document CHEMBL6177981, “Bardoxolone Derivatives as Novel Pseudo-Natural Necroptosis Inhibitors by Destabilizing HSP90 Client Proteins” (J Med Chem, 2025)
